Paper PMC8578332 (Scientific Reports, 2021)
Where a SMILES comes first, the peptide text is derived from it. Bridges are numbered along the chain shown (N, C = ends).

Target: human α7-containing nAChRs (Homo sapiens, UniProt P36544)
Assay: cell-based
Assay type: cell-based
Details: SEM

human α7-containing nAChRs, sequence (P36544 23-502 limits assumed): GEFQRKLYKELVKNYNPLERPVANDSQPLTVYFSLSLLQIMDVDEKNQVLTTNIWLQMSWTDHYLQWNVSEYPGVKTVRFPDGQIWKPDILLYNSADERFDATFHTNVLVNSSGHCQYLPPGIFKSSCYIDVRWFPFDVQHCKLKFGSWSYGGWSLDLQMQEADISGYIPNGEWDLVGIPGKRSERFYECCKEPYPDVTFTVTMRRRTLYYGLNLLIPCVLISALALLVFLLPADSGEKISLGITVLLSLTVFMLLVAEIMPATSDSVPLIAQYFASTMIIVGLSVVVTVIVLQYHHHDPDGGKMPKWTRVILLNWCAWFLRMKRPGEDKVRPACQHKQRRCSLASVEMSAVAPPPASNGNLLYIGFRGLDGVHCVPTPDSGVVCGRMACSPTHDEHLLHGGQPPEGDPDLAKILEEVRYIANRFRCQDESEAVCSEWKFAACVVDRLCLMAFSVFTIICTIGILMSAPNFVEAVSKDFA

SMILES | IC50 [µM]
CC[C@H](C)[C@@H]1NC(=O)[C@@H]2CSSC[C@H](NC(=O)CN)C(=O)N[C@@H](CSSC[C@@H](C(N)=O)NC(=O)[C@H](CC(C)C)NC(=O)[C@H](CC(=O)O)NC(=O)[C@@H]3CCCN3C(=O)[C@H](CC(N)=O)NC(=O)[C@H](CC(N)=O)NC(=O)[C@H](CC(C)C)NC1=O)C(=O)N[C@@H](CO)C(=O)N[C@@H](C)C(=O)N[C@@H](CCCNC(=N)N)C(=O)N1CCC[C@H]1C(=O)N1CCC[C@H]1C(=O)N2 [gTxIA[∇A5 A10L]] (H-GCCSARPPCILNNPDLC-NH2; disulfide 2-9, 3-17) | 18 ± 4
CC[C@H](C)[C@@H]1NC(=O)[C@H](CC(N)=O)NC(=O)[C@@H]2CCCN2C(=O)[C@H](CC(N)=O)NC(=O)[C@H](CC(N)=O)NC(=O)[C@H](C(C)C)NC(=O)[C@H](CCCNC(=N)N)NC(=O)[C@@H]2CSSC[C@H](NC(=O)CNC(=O)[C@@H](N)CO)C(=O)N[C@@H](CSSC[C@@H](C(N)=O)NC1=O)C(=O)N[C@@H](CO)C(=O)N[C@@H](CC(N)=O)C(=O)N1CCC[C@H]1C(=O)N[C@@H](C)C(=O)N2 [gLsIA, reference compound] (H-SGCCSNPACRVNNPNIC-NH2; disulfide 3-9, 4-17) | 0.3 ± 0.063
CC[C@H](C)[C@@H]1NC(=O)[C@@H]2CSSC[C@H](NC(=O)[C@@H](NC(=O)CN)CSSC[C@@H](C(N)=O)NC(=O)[C@H](CC(C)C)NC(=O)[C@H](CC(=O)O)NC(=O)[C@@H]3CCCN3C(=O)[C@H](CC(N)=O)NC(=O)[C@H](CC(N)=O)NC(=O)[C@H](CC(C)C)NC1=O)C(=O)N[C@@H](CO)C(=O)N[C@@H](C)C(=O)N[C@@H](CCCNC(=N)N)C(=O)N1CCC[C@H]1C(=O)N1CCC[C@H]1C(=O)N2 [rTxIA[∇A5 A10L]] (H-GCCSARPPCILNNPDLC-NH2; disulfide 2-17, 3-9) | 39 ± 10.3
CC(C)[C@H](NC(=O)[C@@H]1CSSC[C@H](NC(=O)[C@@H](N)CO)C(=O)N[C@H]2CSSC[C@H](NC(=O)[C@H](C)NC(=O)[C@@H]3CCCN3C(=O)[C@H](CC(N)=O)NC(=O)[C@H](CCCNC(=N)N)NC(=O)[C@H](C)NC2=O)C(=O)N[C@@H](CCCNC(=N)N)C(=O)N[C@@H](Cc2c[nH]cn2)C(=O)N[C@@H](CC(N)=O)C(=O)N[C@@H](Cc2c[nH]cn2)C(=O)N2CCC[C@H]2C(=O)N1)C(N)=O [rAusIA] (H-SCCARNPACRHNHPCV-NH2; disulfide 2-15, 3-9) | 26 ± 5
CC(C)[C@H](NC(=O)[C@@H]1CSSC[C@@H]2NC(=O)[C@@H](NC(=O)[C@@H](N)CO)CSSC[C@H](NC(=O)[C@H](C)NC(=O)[C@@H]3CCCN3C(=O)[C@H](CC(N)=O)NC(=O)[C@H](CCCNC(=N)N)NC(=O)[C@H](C)NC2=O)C(=O)N[C@@H](CCCNC(=N)N)C(=O)N[C@@H](Cc2c[nH]cn2)C(=O)N[C@@H](CC(N)=O)C(=O)N[C@@H](Cc2c[nH]cn2)C(=O)N2CCC[C@H]2C(=O)N1)C(N)=O [gAusIA] (H-SCCARNPACRHNHPCV-NH2; disulfide 2-9, 3-15) | 47 ± 6.7
CC[C@H](C)[C@@H]1NC(=O)[C@@H]2CSSC[C@H](NC(=O)[C@@H](NC(=O)CN)CSSC[C@@H](C(N)=O)NC(=O)[C@H](CC(C)C)NC(=O)[C@H](CC(=O)O)NC(=O)[C@@H]3CCCN3C(=O)[C@H](CC(N)=O)NC(=O)[C@H](CC(N)=O)NC(=O)[C@H](CC(C)C)NC1=O)C(=O)N[C@@H](CO)C(=O)N[C@@H](CCCNC(=N)N)C(=O)N1CCC[C@H]1C(=O)N1CCC[C@H]1C(=O)N2 [rTxIA [A10L], reference compound] (H-GCCSRPPCILNNPDLC-NH2; disulfide 2-16, 3-8) | 6 ± 0.123
CC[C@H](C)[C@@H]1NC(=O)[C@H](CC(N)=O)NC(=O)[C@@H]2CCCN2C(=O)[C@H](CC(N)=O)NC(=O)[C@H](CC(N)=O)NC(=O)[C@H](C(C)C)NC(=O)[C@H](CCCNC(=N)N)NC(=O)[C@@H]2CSSC[C@H](NC(=O)[C@@H](NC(=O)CNC(=O)[C@@H](N)CO)CSSC[C@@H](C(N)=O)NC1=O)C(=O)N[C@@H](CO)C(=O)N[C@@H](CC(N)=O)C(=O)N1CCC[C@H]1C(=O)N[C@@H](C)C(=O)N2 [rLsIA, reference compound] (H-SGCCSNPACRVNNPNIC-NH2; disulfide 3-17, 4-9) | 41 ± 3.4
CC[C@H](C)[C@@H]1NC(=O)[C@@H]2CSSC[C@H](NC(=O)CN)C(=O)N[C@@H](CSSC[C@@H](C(N)=O)NC(=O)[C@H](CC(C)C)NC(=O)[C@H](CC(=O)O)NC(=O)[C@@H]3CCCN3C(=O)[C@H](CC(N)=O)NC(=O)[C@H](CC(N)=O)NC(=O)[C@H](CC(C)C)NC1=O)C(=O)N[C@@H](CO)C(=O)N[C@@H](CCCNC(=N)N)C(=O)N1CCC[C@H]1C(=O)N1CCC[C@H]1C(=O)N2 [gTxIA [A10L], reference compound] (H-GCCSRPPCILNNPDLC-NH2; disulfide 2-8, 3-16) | 0.5 ± 0.036
